Among the data in patent US8492391B2, “Substituted 6-(2-hydroxybenzylamino)purine derivatives, their use as medicaments and compositions containing these derivatives” (Univerzita Palackeho V Olomouci, priority 2009, dated 2013) are IC50 values, retold here.

T1 sequence (P50750 whole entry, species assumed): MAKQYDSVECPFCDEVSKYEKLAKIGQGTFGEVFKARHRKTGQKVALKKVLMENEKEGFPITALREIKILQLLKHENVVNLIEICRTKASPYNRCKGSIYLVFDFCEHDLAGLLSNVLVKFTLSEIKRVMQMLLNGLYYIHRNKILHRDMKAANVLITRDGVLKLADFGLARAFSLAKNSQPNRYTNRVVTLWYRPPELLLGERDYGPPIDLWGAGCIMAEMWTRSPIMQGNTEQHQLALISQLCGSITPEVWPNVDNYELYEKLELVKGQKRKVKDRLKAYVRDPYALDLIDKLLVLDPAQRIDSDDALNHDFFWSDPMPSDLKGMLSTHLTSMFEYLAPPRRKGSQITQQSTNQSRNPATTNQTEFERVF
T1 sequence (O60563 whole entry partner, species assumed): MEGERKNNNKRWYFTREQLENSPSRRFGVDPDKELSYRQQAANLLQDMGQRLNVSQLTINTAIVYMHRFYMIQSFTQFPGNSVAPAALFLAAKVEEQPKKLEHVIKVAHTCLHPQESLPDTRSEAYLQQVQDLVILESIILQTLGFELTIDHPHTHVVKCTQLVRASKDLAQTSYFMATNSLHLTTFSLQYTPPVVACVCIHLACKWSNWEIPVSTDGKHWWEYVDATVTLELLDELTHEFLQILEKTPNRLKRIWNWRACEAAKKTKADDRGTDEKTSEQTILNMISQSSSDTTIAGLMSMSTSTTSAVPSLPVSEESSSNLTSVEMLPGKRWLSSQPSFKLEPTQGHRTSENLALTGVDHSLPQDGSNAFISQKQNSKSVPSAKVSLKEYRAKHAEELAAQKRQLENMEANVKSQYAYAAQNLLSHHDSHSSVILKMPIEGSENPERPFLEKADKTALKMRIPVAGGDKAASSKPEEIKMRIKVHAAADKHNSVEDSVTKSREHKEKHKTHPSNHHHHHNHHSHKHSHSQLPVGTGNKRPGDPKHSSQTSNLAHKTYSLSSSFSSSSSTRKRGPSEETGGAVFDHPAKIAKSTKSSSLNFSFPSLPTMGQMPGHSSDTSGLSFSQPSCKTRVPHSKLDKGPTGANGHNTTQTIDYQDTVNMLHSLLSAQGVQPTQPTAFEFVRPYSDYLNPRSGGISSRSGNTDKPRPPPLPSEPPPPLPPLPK

The first data set concerns the target T1, CDK9/cyclin T (Homo sapiens, UniProt P50750).
T1 construct: made in house; host or cells: Sf9 insect cells, baculovirus co-infection
Kind of data set: CDK9/cyclin T kinase inhibition assay. The class given is biochemical. The conditions noted are these: kinase inhibitory activity, 15 μM ATP, (YSPTSPS)3 peptide substrate. On the procedure: (§1) Selected compounds were tested for CDK1/cyclin B, CDK2/cyclin E, CDK5/p25, CDK7/cyclin H and CDK9/cyclin T inhibitory activity to determine the basic relationships between their structure and the inhibitory activity. Cdk/cyclin complexes were expressed in Sf9 cells co-infected with appropriate baculoviral construct. The cells were harvested 70 hours post infection in lysis buffer (50 mM Tris pH 7.4, 150 mM NaCl, 5 mM EDTA, 20 mM NaF, 1% Tween 20, protease inhibitors) for 30 min on ice and the soluble fraction was recovered by centrifugation at 14.000 g for […]. The protein extract was stored at −80° C. until use. The final point test system for kinase activity measurement was used to carry out experiments on the kinetics under linear conditions. […] ATP and tested compound in a final volume of 20 μl, all in reaction buffer: 50 mM Hepes pH 7.4, 10 mM MgCl2, 5 mM EGTA, 10 mM 2-glycerolphosphate, 1 mM NaF, 1 mM DTT and protease inhibitors. After 30 min, the incubations were stopped by adding 5% H3PO4 and then the proteins were separated by phosphocellulose binding. The measurement of kinase inhibition employed the digital imaging analyzer BAS 1800. The kinase activity was expressed as a percentage of maximum activity and the IC50 value was determined by graphic analysis. The kinase activity is expressed as a percentage of maximum activity (FIG. 1).
For the compound `CC(C)n1cnc2c(NCc3cc(Cl)ccc3O)nc(NC(C)C(C)(C)O)nc21` (centres unmarked) [Compound 82], the IC50 is 0.01 µM.

Take `CC(C)n1cnc2c(NCc3cc(Cl)ccc3O)nc(NCCC(C)(C)O)nc21` [Compound 83]: half-maximal inhibition (IC50) required 0.007 µM.

Take `CCC(CO)Nc1nc(NCc2cccc(C)c2O)c2ncn(C(C)C)c2n1` (centres unmarked) [Compound 101]: the IC50 turned out to be 0.04 µM.

Compound `CCC(CO)Nc1nc(NCc2cccc(O)c2O)c2ncn(C(C)C)c2n1` (centres unmarked) [Compound 113] had a concentration for half-maximal inhibition (IC50) of 0.04 µM.

On to `CC(C)n1cnc2c(NCc3cc(O)ccc3O)nc(NC3CCCCC3N)nc21` (centres unmarked) [Compound 121], for which the IC50 was 0.07 µM.

As for `COc1cccc(CNc2nc(NCC(C)O)nc3c2ncn3C(C)C)c1O` (centres unmarked) [Compound 127], the IC50 amounted to 0.06 µM.

`COc1cccc(CNc2nc(NC3CCC(O)CC3)nc3c2ncn3C(C)C)c1O` (centres unmarked) [Compound 136]: half-maximal inhibition (IC50) required 0.03 µM.

On to `CCC(CO)Nc1nc(NCc2ccc(OC)cc2O)c2ncn(C(C)C)c2n1` (centres unmarked) [Compound 139], for which the IC50 was determined as 0.04 µM.

Regarding `CCC(CC)n1cnc2c(NCc3cc(Cl)ccc3O)nc(NC3CCCCC3N)nc21` (centres unmarked) [compound 223], half-maximal inhibition (IC50) was put at 0.05 µM.

On to `CCC(CC)n1cnc2c(NCc3cc(F)ccc3O)nc(NC3CCC(N)CC3)nc21` (centres unmarked) [compound 227], for which the IC50 was 0.01 µM.

`CCC(CO)Nc1nc(NCc2cccc(OC)c2O)c2ncn(C(CC)CC)c2n1` (centres unmarked) [compound 237] came in with an IC50 of 0.02 µM.

Compound `CCC(CC)n1cnc2c(NCc3cccc(OC)c3O)nc(NC3CCCCC3N)nc21` (centres unmarked) [compound 238] registered an IC50 of 0.04 µM.

As for `CCC(CO)Nc1nc(NCc2cc(OC)ccc2O)c2ncn(C(CC)CC)c2n1` (centres unmarked) [compound 240], the half-inhibitory concentration (IC50) turned out to be 0.07 µM.

In another data set the target is T2, CDK2/cyclin E (Homo sapiens, UniProt P24941).
T2 construct: made in house; host or cells: Sf9 insect cells, baculovirus co-infection
Kind of data set: CDK2/cyclin E kinase inhibition assay. The conditions noted are these: kinase inhibitory activity, 15 μM ATP, histone substrate. The class given is biochemical. On the procedure: as §1
`CC(C)n1cnc2c(NCc3cc(Cl)ccc3O)nc(NC(C)C(C)(C)O)nc21` (centres unmarked) [Compound 82] registered an IC50 of 0.04 µM.

Take `CC(C)n1cnc2c(NCc3cc(Cl)ccc3O)nc(NCCC(C)(C)O)nc21` [Compound 83]: inhibition was half-maximal at 0.02 µM (IC50).

Compound `CC(C)n1cnc2c(NCc3cc(O)ccc3O)nc(NC3CCCCC3N)nc21` (centres unmarked) [Compound 121] showed an IC50 of 0.08 µM.

On to `COc1cccc(CNc2nc(NCC(C)O)nc3c2ncn3C(C)C)c1O` (centres unmarked) [Compound 127], for which the midpoint of inhibition, the IC50, lay at 0.08 µM.

Regarding `COc1cccc(CNc2nc(NC3CCC(O)CC3)nc3c2ncn3C(C)C)c1O` (centres unmarked) [Compound 136], half-maximal inhibition (IC50) was put at 0.05 µM.

The compound `CCC(CO)Nc1nc(NCc2ccc(OC)cc2O)c2ncn(C(C)C)c2n1` (centres unmarked) [Compound 139] came in with an IC50 of 0.09 µM.

For `CCC(CC)n1cnc2c(NCc3cc(Cl)ccc3O)nc(NC3CCCCC3N)nc21` (centres unmarked) [compound 223], the IC50 came to 0.08 µM.

`CCC(CC)n1cnc2c(NCc3cc(F)ccc3O)nc(NC3CCC(N)CC3)nc21` (centres unmarked) [compound 227] displayed an IC50 of 0.06 µM.

`CCC(CO)Nc1nc(NCc2cccc(OC)c2O)c2ncn(C(CC)CC)c2n1` (centres unmarked) [compound 237] registered an IC50 of 0.04 µM.

As to `CCC(CC)n1cnc2c(NCc3cccc(OC)c3O)nc(NC3CCCCC3N)nc21` (centres unmarked) [compound 238], inhibition was half-maximal at 0.06 µM (IC50).

Turning to `CCC(CO)Nc1nc(NCc2cc(OC)ccc2O)c2ncn(C(CC)CC)c2n1` (centres unmarked) [compound 240], the IC50 is 0.1 µM.

The subject of the next data set is K562 (human chronic myelogenous leukaemia). Kind of data set: Calcein AM cytotoxicity assay, K562. The data set is classed as cell-based. The conditions noted are these: Homo sapiens, read-out: Cytotoxic activity IC50 (μM) K562. The source says:
(§2) Cytotoxicity of the compounds is the major property determining their anticancer effect in vivo. One of the parameters used, as the basis for cytotoxicity assays, is the metabolic activity of viable cells. For example, a microtiter assay, which uses the Calcein AM, is now widely used to quantitate cell proliferation and cytotoxicity. For instance, this assay is used in drug screening programs and in chemosensitivity testing. Because only metabolically active cells cleave Calcein AM, these assays detect viable cells exclusively. The quantity of cleaved Calcein AM corresponds to the number of vital cells in the culture. We have been using the following cell lines: MCF7 (human breast adenocarcinoma), K562 (human chronic myelogenous leukaemia), HOS (human osteogenic sarcoma), HeLa (human cervical carcinoma), HL 60 (human promyelocytic leukaemia), G 361 (human malignant melanoma), CEM (human lymphoblastoid leukaemia). All cell lines were grown in DMEM medium (Gibco BRL) supplemented with 10% (v/v) fetal bovine serum and L-glutamine and maintained at 37° C. in a humidified atmosphere with 5% CO2. For cytotoxicity assays, 10^4 cells were seeded into each well of 96 well plate, allowed to stabilize for at least 2 h and then tested compounds were added at various concentrations ranging from 100 to 0.1 μM in triplicates. Three days after drug addition Calcein AM solution (Molecular Probes) was added and let to enter the cells for 1 hour. Fluorescence of viable cells was quantified using Fluoroskan Ascent (Microsystems).
On to `CCC(CO)Nc1nc(NCc2cccc(O)c2O)c2ncn(C(C)C)c2n1` (centres unmarked) [Compound 113], for which the IC50 was 7.8 µM.

The data set is the same for the next values; noted with them: read-out: Cytotoxic activity IC50 (μM) K562.
As to `CCn1cnc2c(NCc3cc(Cl)ccc3O)nc(NC3CCCCC3N)nc21` (centres unmarked) [Compound 47], the IC50 was 55 µM.

As to `COc1ccc(O)c(CNc2nc(NC3CCCCC3N)nc3c2ncn3C(C)C)c1` (centres unmarked) [Compound 143], the IC50 is 13.1 µM.

As to `NC1CCCCC1Nc1nc(NCc2cc(Cl)ccc2O)c2ncn(Cc3ccccc3)c2n1` (centres unmarked) [Compound 179], the IC50 was 19.5 µM.

`NC1CCCCC1Nc1nc(NCc2cc(F)ccc2O)c2ncn(Cc3ccccc3)c2n1` (centres unmarked) [Compound 186]: the IC50 was 15.4 µM.

As for `CCC(CC)n1cnc2c(NCc3cc(Cl)ccc3O)nc(NC3CCCCC3N)nc21` (centres unmarked) [compound 223], the IC50 is 17.6 µM.

Take `CCC(CC)n1cnc2c(NCc3cc(F)ccc3O)nc(NC3CCCCC3N)nc21` (centres unmarked) [compound 226]: the IC50 was 12.4 µM.

The next data set relates to HOS (human osteogenic sarcoma). Kind of data set: Calcein AM cytotoxicity assay, HOS. The class given is cell-based. As to conditions: Homo sapiens, read-out: Cytotoxic activity IC50 (μM) HOS.
Source text: as §2
As for `CCC(CO)Nc1nc(NCc2cccc(O)c2O)c2ncn(C(C)C)c2n1` (centres unmarked) [Compound 113], the IC50 was 8.4 µM.

The data set is the same for the next values; noted with them: read-out: Cytotoxic activity IC50 (μM) HOS.
On to `CCn1cnc2c(NCc3cc(Cl)ccc3O)nc(NC3CCCCC3N)nc21` (centres unmarked) [Compound 47], for which the concentration for half-maximal inhibition (IC50) was 41 µM.

Take `NC1CCCCC1Nc1nc(NCc2cc(Cl)ccc2O)c2ncn(Cc3ccccc3)c2n1` (centres unmarked) [Compound 179]: the IC50 is 10.2 µM.

In the case of `NC1CCCCC1Nc1nc(NCc2cc(F)ccc2O)c2ncn(Cc3ccccc3)c2n1` (centres unmarked) [Compound 186], the IC50 was 9.3 µM.

Take `CCC(CC)n1cnc2c(NCc3cc(Cl)ccc3O)nc(NC3CCCCC3N)nc21` (centres unmarked) [compound 223]: the IC50 was 6.8 µM.

As to `CCC(CC)n1cnc2c(NCc3cc(F)ccc3O)nc(NC3CCCCC3N)nc21` (centres unmarked) [compound 226], the IC50 was 4.3 µM.

The next data set has as its system MCF7 (human breast adenocarcinoma). Kind of data set: Calcein AM cytotoxicity assay, MCF7. The class given is cell-based. As to conditions: Homo sapiens, MCF7, read-out: Cytotoxic activity IC50 (μM) MCF7.
Source text: as §2
As for `CCC(CO)Nc1nc(NCc2cccc(O)c2O)c2ncn(C(C)C)c2n1` (centres unmarked) [Compound 113], the IC50 is 4.5 µM.

The same data set, now with this note: MCF7, read-out: Cytotoxic activity IC50 (μM) MCF7.
Consider `CCn1cnc2c(NCc3cc(Cl)ccc3O)nc(NC3CCCCC3N)nc21` (centres unmarked) [Compound 47], for which the 50% inhibitory concentration (IC50) is 32 µM.

For the compound `COc1ccc(O)c(CNc2nc(NC3CCCCC3N)nc3c2ncn3C(C)C)c1` (centres unmarked) [Compound 143], the IC50 was 5 µM.

On to `NC1CCCCC1Nc1nc(NCc2cc(Cl)ccc2O)c2ncn(Cc3ccccc3)c2n1` (centres unmarked) [Compound 179], for which the IC50 was 8.7 µM.

For `NC1CCCCC1Nc1nc(NCc2cc(F)ccc2O)c2ncn(Cc3ccccc3)c2n1` (centres unmarked) [Compound 186], the IC50 was 6.9 µM.

On to `CCC(CC)n1cnc2c(NCc3cc(Cl)ccc3O)nc(NC3CCCCC3N)nc21` (centres unmarked) [compound 223], for which the IC50 is 4.8 µM.

With `CCC(CC)n1cnc2c(NCc3cc(F)ccc3O)nc(NC3CCCCC3N)nc21` (centres unmarked) [compound 226], the half-maximal inhibitory concentration (IC50) was 4.1 µM.

For orientation: IC50 means the midpoint of a concentration-inhibition curve.
